Data from PubChem BioAssay (NCI).
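How tested: cells in 96-well plates exposed to compound for 48 hours at five concentrations. The concentration for full growth arrest is given as TGI.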

Tests used:
Test in all cases: NCI-60 cell line screen, 48 h
786-0 renal = tested on: 786-0 renal
A549 NSCLC = tested on: A549 NSCLC
ACHN renal = tested on: ACHN renal
BT-549 breast = tested on: BT-549 breast
CCRF-CEM leukemia = tested on: CCRF-CEM leukemia
COLO 205 colon = tested on: COLO 205 colon
DU-145 prostate = tested on: DU-145 prostate
EKVX NSCLC = tested on: EKVX NSCLC
HCT-116 colon = tested on: HCT-116 colon
HCT-15 colon = tested on: HCT-15 colon
HL-60(TB) leukemia = tested on: HL-60(TB) leukemia
HOP-62 NSCLC = tested on: HOP-62 NSCLC
HOP-92 NSCLC = tested on: HOP-92 NSCLC
HT29 colon = tested on: HT29 colon
K-562 leukemia = tested on: K-562 leukemia
KM12 colon = tested on: KM12 colon
M14 melanoma = tested on: M14 melanoma
MALME-3M melanoma = tested on: MALME-3M melanoma
MCF7 breast = tested on: MCF7 breast
MDA-MB-435 = tested on: MDA-MB-435
MDA-N = tested on: MDA-N
NCI-H226 lung = tested on: NCI-H226 lung
NCI-H23 lung = tested on: NCI-H23 lung
NCI-H460 lung = tested on: NCI-H460 lung
NCI/ADR-RES ovarian = tested on: NCI/ADR-RES ovarian
OVCAR-3 ovarian = tested on: OVCAR-3 ovarian
OVCAR-5 ovarian = tested on: OVCAR-5 ovarian
OVCAR-8 ovarian = tested on: OVCAR-8 ovarian
PC-3 prostate = tested on: PC-3 prostate
RPMI-8226 leukemia = tested on: RPMI-8226 leukemia
RXF 393 renal = tested on: RXF 393 renal
SF-268 CNS = tested on: SF-268 CNS
SF-295 CNS = tested on: SF-295 CNS
SF-539 CNS = tested on: SF-539 CNS
SK-MEL-28 melanoma = tested on: SK-MEL-28 melanoma
SN12C renal = tested on: SN12C renal
SNB-19 CNS = tested on: SNB-19 CNS
SR leukemia = tested on: SR leukemia
SW-620 colon = tested on: SW-620 colon
T-47D breast = tested on: T-47D breast
TK-10 renal = tested on: TK-10 renal
U251 CNS = tested on: U251 CNS
UACC-257 melanoma = tested on: UACC-257 melanoma
UO-31 renal = tested on: UO-31 renal
A498 renal = tested on: A498 renal
CAKI-1 renal = tested on: CAKI-1 renal
HCC-2998 colon = tested on: HCC-2998 colon
HS 578T breast = tested on: HS 578T breast
IGROV1 ovarian = tested on: IGROV1 ovarian
LOX IMVI melanoma = tested on: LOX IMVI melanoma
MDA-MB-231 breast = tested on: MDA-MB-231 breast
NCI-H522 lung = tested on: NCI-H522 lung
OVCAR-4 ovarian = tested on: OVCAR-4 ovarian
SK-MEL-2 melanoma = tested on: SK-MEL-2 melanoma
SK-MEL-5 melanoma = tested on: SK-MEL-5 melanoma
SK-OV-3 ovarian = tested on: SK-OV-3 ovarian
SNB-75 CNS = tested on: SNB-75 CNS
UACC-62 melanoma = tested on: UACC-62 melanoma

## Cc1ccc(S(=NS(=O)(=O)c2ccc(C)cc2)c2ccc(C)cc2)cc1
786-0 renal
  TGI: > 100 µM
A549 NSCLC
  TGI: > 100 µM
ACHN renal
  TGI: > 100 µM
BT-549 breast
  TGI: > 100 µM
CCRF-CEM leukemia
  TGI: > 100 µM
COLO 205 colon
  TGI: > 100 µM
DU-145 prostate
  TGI: > 100 µM
EKVX NSCLC
  TGI: > 100 µM
HCT-116 colon
  TGI: > 100 µM
HCT-15 colon
  TGI: > 100 µM
HL-60(TB) leukemia
  TGI: > 100 µM
HOP-62 NSCLC
  TGI: > 100 µM
HOP-92 NSCLC
  TGI: > 100 µM
HT29 colon
  TGI: > 100 µM
K-562 leukemia
  TGI: > 100 µM
KM12 colon
  TGI: > 100 µM
M14 melanoma
  TGI: > 100 µM
MALME-3M melanoma
  TGI: > 100 µM
MCF7 breast
  TGI: > 100 µM
MDA-MB-435
  TGI: > 100 µM
MDA-N
  TGI: > 100 µM
NCI-H226 lung
  TGI: > 100 µM
NCI-H23 lung
  TGI: > 100 µM
NCI-H460 lung
  TGI: > 100 µM
NCI/ADR-RES ovarian
  TGI: > 100 µM
OVCAR-3 ovarian
  TGI: > 100 µM
OVCAR-5 ovarian
  TGI: > 100 µM
OVCAR-8 ovarian
  TGI: > 100 µM
PC-3 prostate
  TGI: > 100 µM
RPMI-8226 leukemia
  TGI: > 100 µM
RXF 393 renal
  TGI: > 100 µM
SF-268 CNS
  TGI: > 100 µM
SF-295 CNS
  TGI: > 100 µM
SF-539 CNS
  TGI: > 100 µM
SK-MEL-28 melanoma
  TGI: > 100 µM
SN12C renal
  TGI: > 100 µM
SNB-19 CNS
  TGI: > 100 µM
SR leukemia
  TGI: > 100 µM
SW-620 colon
  TGI: > 100 µM
T-47D breast
  TGI: > 100 µM
TK-10 renal
  TGI: > 100 µM
U251 CNS
  TGI: > 100 µM
UACC-257 melanoma
  TGI: > 100 µM
UO-31 renal
  TGI: > 100 µM

## O=C(O)CCc1nc(-c2ccccc2-n2cccc2)no1
786-0 renal
  TGI: > 100 µM
A498 renal
  TGI: > 100 µM
A549 NSCLC
  TGI: > 100 µM
ACHN renal
  TGI: > 100 µM
BT-549 breast
  TGI: > 100 µM
CAKI-1 renal
  TGI: > 100 µM
COLO 205 colon
  TGI: > 100 µM
DU-145 prostate
  TGI: > 100 µM
EKVX NSCLC
  TGI: > 100 µM
HCC-2998 colon
  TGI: > 100 µM
HCT-116 colon
  TGI: > 100 µM
HCT-15 colon
  TGI: > 100 µM
HOP-62 NSCLC
  TGI: > 100 µM
HOP-92 NSCLC
  TGI: > 100 µM
HS 578T breast
  TGI: > 100 µM
HT29 colon
  TGI: > 100 µM
IGROV1 ovarian
  TGI: > 100 µM
K-562 leukemia
  TGI: > 100 µM
KM12 colon
  TGI: > 100 µM
LOX IMVI melanoma
  TGI: > 100 µM
M14 melanoma
  TGI: > 100 µM
MALME-3M melanoma
  TGI: > 100 µM
MCF7 breast
  TGI: > 100 µM
MDA-MB-231 breast
  TGI: > 100 µM
MDA-MB-435
  TGI: 46.3 µM
MDA-N
  TGI: > 100 µM
NCI-H226 lung
  TGI: > 100 µM
NCI-H23 lung
  TGI: > 100 µM
NCI-H460 lung
  TGI: > 100 µM
NCI-H522 lung
  TGI: > 100 µM
NCI/ADR-RES ovarian
  TGI: > 100 µM
OVCAR-3 ovarian
  TGI: 86.3 µM
OVCAR-4 ovarian
  TGI: > 100 µM
OVCAR-5 ovarian
  TGI: > 100 µM
OVCAR-8 ovarian
  TGI: > 100 µM
PC-3 prostate
  TGI: > 100 µM
RPMI-8226 leukemia
  TGI: > 100 µM
RXF 393 renal
  TGI: > 100 µM
SF-268 CNS
  TGI: > 100 µM
SF-295 CNS
  TGI: > 100 µM
SF-539 CNS
  TGI: > 100 µM
SK-MEL-2 melanoma
  TGI: > 100 µM
SK-MEL-28 melanoma
  TGI: > 100 µM
SK-MEL-5 melanoma
  TGI: > 100 µM
SK-OV-3 ovarian
  TGI: > 100 µM
SN12C renal
  TGI: > 100 µM
SNB-19 CNS
  TGI: > 100 µM
SNB-75 CNS
  TGI: > 100 µM
SR leukemia
  TGI: > 100 µM
SW-620 colon
  TGI: > 100 µM
T-47D breast
  TGI: > 100 µM
TK-10 renal
  TGI: > 100 µM
U251 CNS
  TGI: > 100 µM
UACC-257 melanoma
  TGI: > 100 µM
UACC-62 melanoma
  TGI: > 100 µM
UO-31 renal
  TGI: > 100 µM
